Assay results taken from article PMC11522691, “Structure of the turnover-ready state of an ancestral respiratory complex I” (Nature Communications, 2024).

Molecular target: T1, P. denitrificans complex I (Pd-CI, Pd-CI-ND), ubiquinone-binding site (Paracoccus denitrificans, UniProt A1B487+A1B495+A1B497)
T1 construct: gene nuoH; native 18-subunit complex from P. denitrificans membranes, His6 tag on Nqo5 (NDUFS3), DDM-purified, reconstituted in MSP2N2 phospholipid nanodiscs; NDUFS2-Arg65 dimethylated; ND3 N-formylMet; with NADH-quinone oxidoreductase subunit 1 (subunit F); NADH-quinone oxidoreductase subunit 2 (subunit E); NADH-quinone oxidoreductase subunit 3 (subunit G); NADH-quinone oxidoreductase subunit 5 (subunit C); NADH-quinone oxidoreductase subunit 7 (subunit A); NADH-quinone oxidoreductase subunit 9 (subunit I); NADH-quinone oxidoreductase subunit 10 (subunit J); NADH-quinone oxidoreductase subunit 11 (subunit K); NADH-quinone oxidoreductase subunit 12 (subunit L); NADH-quinone oxidoreductase subunit 13 (subunit M); NADH-quinone oxidoreductase subunit 14 (subunit N); NADH dehydrogenase [ubiquinone] iron-sulfur protein 4 homologue; NADH dehydrogenase [ubiquinone] iron-sulfur protein 6 homologue; NADH dehydrogenase [ubiquinone]; 1 alpha subcomplex subunit 12 homologue; Protein-L-isoaspartate O-methyltransferase
T1 sequence (A1B497 whole entry): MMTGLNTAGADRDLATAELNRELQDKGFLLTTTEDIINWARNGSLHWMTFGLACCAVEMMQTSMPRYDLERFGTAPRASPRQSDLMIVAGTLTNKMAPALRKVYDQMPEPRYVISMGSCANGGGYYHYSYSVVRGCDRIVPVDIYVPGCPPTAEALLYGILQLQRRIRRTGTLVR
T1 sequence (A1B495 whole entry): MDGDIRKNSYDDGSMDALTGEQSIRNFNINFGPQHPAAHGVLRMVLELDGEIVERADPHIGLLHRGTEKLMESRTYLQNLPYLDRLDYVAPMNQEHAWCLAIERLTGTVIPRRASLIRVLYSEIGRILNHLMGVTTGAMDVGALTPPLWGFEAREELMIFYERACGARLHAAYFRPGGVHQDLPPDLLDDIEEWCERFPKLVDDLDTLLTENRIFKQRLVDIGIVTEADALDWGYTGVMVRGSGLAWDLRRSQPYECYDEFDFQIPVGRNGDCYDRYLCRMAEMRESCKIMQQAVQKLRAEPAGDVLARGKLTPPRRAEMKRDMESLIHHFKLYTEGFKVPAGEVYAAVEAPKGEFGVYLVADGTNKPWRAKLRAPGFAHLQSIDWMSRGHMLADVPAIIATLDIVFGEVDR
T1 sequence (A1B487 whole entry): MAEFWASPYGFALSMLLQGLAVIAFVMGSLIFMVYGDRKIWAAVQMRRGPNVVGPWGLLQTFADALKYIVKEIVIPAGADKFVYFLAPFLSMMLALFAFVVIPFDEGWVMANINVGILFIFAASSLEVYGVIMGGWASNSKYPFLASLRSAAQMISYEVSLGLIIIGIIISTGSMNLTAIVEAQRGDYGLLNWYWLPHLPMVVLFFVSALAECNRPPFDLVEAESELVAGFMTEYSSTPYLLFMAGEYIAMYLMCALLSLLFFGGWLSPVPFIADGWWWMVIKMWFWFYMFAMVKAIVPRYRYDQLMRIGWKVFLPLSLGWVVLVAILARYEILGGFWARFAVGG
Assay: cryo-EM structure of the complex, […] Å
Conditions: closed resting state, oxidised; headgroup partially inserted near ND1-Arg38, Trp41, Met244, Lys295 and NDUFS7-Arg77; nanodiscs with added Q10

SMILES: COC1=C(OC)C(=O)C(C/C=C(\C)CC/C=C(\C)CC/C=C(\C)CC/C=C(\C)CC/C=C(\C)CC/C=C(\C)CC/C=C(\C)CC/C=C(\C)CC/C=C(\C)CCC=C(C)C)=C(C)C1=O [ubiquinone-10]
- cryo-EM structure of the complex, 2.3 Å: Density in the central polar region of the channel has been assigned to a partially inserted ubiquinone-10
